Drawing on PubChem BioAssay AID256 (DTP/NCI, 2004), this text covers T/C for 13 compounds.

The subject of the assay is CD2F1 mice, L1210 leukemia ip, survival T/C. The assay is described as follows: NCI In Vivo Anticancer Drug Screen. Data for tumor model L1210 Leukemia (intraperitoneal) in CD2F1 (CDF1) mice. The settings on record: higher = longer survival. The procedure, abridged: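 Implant tumor; dose compound or vehicle; measure endpoint in both groups; report treated divided by control.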

The mark [1] stands for this setting: endpoint: mean survival time, dose: 100.0 mg/kg/injection, schedule: Q01DX009 (ip), vehicle: saline with Tween-80.
Setting [2] is: endpoint: mean survival time, dose: 200.0 mg/kg/injection, schedule: Q01DX009 (ip), vehicle: saline with Tween-80.
Setting [3] is: endpoint: mean survival time, dose: 400.0 mg/kg/injection, schedule: Q01DX009 (ip), vehicle: saline with Tween-80.
Where [4] appears, read: endpoint: mean survival time, dose: 200.0 mg/kg/injection, schedule: Q04DX003 (ip), vehicle: saline with Tween-80.
[5] abbreviates: endpoint: mean survival time, dose: 50.0 mg/kg/injection, schedule: Q01DX009 (ip), vehicle: saline with Tween-80.
Where [6] appears, read: endpoint: mean survival time, dose: 100.0 mg/kg/injection, schedule: Q04DX003 (ip), vehicle: saline with Tween-80.
The mark [7] stands for this setting: endpoint: mean survival time, dose: 400.0 mg/kg/injection, schedule: Q04DX003 (ip), vehicle: saline with Tween-80.

“And” between values parts separate entries of the source, which are not always exact repeats. Equal values may be shown once. Inconclusive results and toxic doses are left out.

`CCC(=O)N(C)[C@@H](C)C(=O)O[C@H]1CC(=O)N(C)c2cc(cc(OC)c2Cl)C/C(C)=C/C=C[C@@H](OC)[C@@]2(O)C[C@H](OC(=O)N2)[C@@H](C)[C@@H]2O[C@@]12C`: the T/C is, setting by setting: (endpoint: mean survival time, dose: 1.3 micrograms/kg/injection, schedule: Q01DX009 (ip), vehicle: saline + alcohol) 110 % of control; (endpoint: mean survival time, dose: 2.5 micrograms/kg/injection, schedule: Q01DX009 (ip), vehicle: saline + alcohol) 119 % of control; (endpoint: mean survival time, dose: 2.5 micrograms/kg/injection, schedule: Q01DX009 (ip), vehicle: saline) 109 % of control; (endpoint: mean survival time, dose: 3.8 micrograms/kg/injection, schedule: Q01DX009 (ip), vehicle: saline + alcohol) 120 % of control; (endpoint: mean survival time, dose: 5.0 micrograms/kg/injection, schedule: Q01DX009 (ip), vehicle: saline + alcohol) 117 % of control and 111 % of control; (endpoint: mean survival time, dose: 5.0 micrograms/kg/injection, schedule: Q01DX009 (ip), vehicle: saline) 111 % of control. In addition, the T/C by setting is: (endpoint: mean survival time, dose: 7.5 micrograms/kg/injection, schedule: Q01DX009 (ip), vehicle: saline + alcohol) 106 % of control; (endpoint: mean survival time, dose: 10.0 micrograms/kg/injection, schedule: Q01DX009 (ip), vehicle: saline + alcohol) 115 % of control; (endpoint: mean survival time, dose: 10.0 micrograms/kg/injection, schedule: Q01DX009 (ip), vehicle: saline) 111 % of control; (endpoint: mean survival time, dose: 15.0 micrograms/kg/injection, schedule: Q01DX009 (ip), vehicle: saline + alcohol) 112 % of control; (endpoint: mean survival time, dose: 20.0 micrograms/kg/injection, schedule: Q01DX009 (ip), vehicle: saline) 111 % of control; (endpoint: mean survival time, dose: 30.0 micrograms/kg/injection, schedule: Q01DX009 (ip), vehicle: saline + alcohol) 122 % of control. The T/C was 117 % of control (endpoint: mean survival time, dose: 30.0 micrograms/kg/injection, schedule: Q01DX009 (ip), vehicle: saline) and 114 % of control (endpoint: mean survival time, dose: 60.0 micrograms/kg/injection, schedule: Q01DX009 (ip), vehicle: saline + alcohol).
`CN1CCN(c2ncnc3c2ncn3C2OC(CO)C(O)C2O)CC1` (stereo unspecified): the T/C reads like this: (endpoint: mean survival time, dose: 12.5 mg/kg/injection, schedule: Q01DX005 (ip), vehicle: water) 106 % of control; (endpoint: mean survival time, dose: 25.0 mg/kg/injection, schedule: Q01DX005 (ip), vehicle: water) 106 % of control; (endpoint: mean survival time, dose: 50.0 mg/kg/injection, schedule: Q01DX005 (ip), vehicle: water) 112 % of control; (endpoint: mean survival time, dose: 100.0 mg/kg/injection, schedule: Q01DX005 (ip), vehicle: water) 106 % of control; (endpoint: mean survival time, dose: 200.0 mg/kg/injection, schedule: Q01DX005 (ip), vehicle: water) 102 % of control.
`O=C(CC(=O)c1ccccc1)CC(=O)c1ccccc1`: the T/C reads like this: under setting [1], 98 % of control; under setting [2], 100 % of control; under setting [3], 102 % of control.
Take `Cc1cccc(CCF)c1`: the T/C is, setting by setting: (endpoint: mean survival time, dose: 100.0 mg/kg/injection, schedule: Q01DX001 (ip), vehicle: saline with Tween-80) 110 % of control; (endpoint: mean survival time, dose: 200.0 mg/kg/injection, schedule: Q01DX001 (ip), vehicle: saline with Tween-80) 107 % of control; (endpoint: mean survival time, dose: 400.0 mg/kg/injection, schedule: Q01DX001 (ip), vehicle: saline with Tween-80) 98 % of control.
As to `O=C(/C=C/C=C/c1ccccc1)c1ccc(Cl)cc1`, the T/C was 97 % of control (endpoint: mean survival time, dose: 37.5 mg/kg/injection, schedule: Q04DX003 (ip), vehicle: saline with Tween-80); 97 % of control (endpoint: mean survival time, dose: 75.0 mg/kg/injection, schedule: Q04DX003 (ip), vehicle: saline with Tween-80); 89 % of control (endpoint: mean survival time, dose: 150.0 mg/kg/injection, schedule: Q04DX003 (ip), vehicle: saline with Tween-80); 90 % of control under setting [4]; 93 % of control (endpoint: mean survival time, dose: 300.0 mg/kg/injection, schedule: Q04DX003 (ip), vehicle: saline with Tween-80).
For `N#C[Se]CC[Se]C#N`, the T/C by setting is: (endpoint: mean survival time, dose: 6.25 mg/kg/injection, schedule: Q01DX001 (ip), vehicle: saline with Tween-80) 94 % of control; (endpoint: mean survival time, dose: 12.5 mg/kg/injection, schedule: Q01DX001 (ip), vehicle: saline with Tween-80) 98 % of control; (endpoint: mean survival time, dose: 25.0 mg/kg/injection, schedule: Q01DX001 (ip), vehicle: saline with Tween-80) 103 % of control.
As for `C=C(C)C1(CC)C(=O)NC(=S)N(C)C1=O` (stereo unspecified), the T/C runs as follows: (endpoint: mean survival time, dose: 75.0 mg/kg/injection, schedule: Q01DX001 (ip), vehicle: saline) 97 % of control; (endpoint: mean survival time, dose: 150.0 mg/kg/injection, schedule: Q01DX001 (ip), vehicle: saline) 101 % of control; (endpoint: mean survival time, dose: 300.0 mg/kg/injection, schedule: Q01DX001 (ip), vehicle: saline) 101 % of control.
For `CC(c1ccccc1)n1cncc1C(=O)N1CCN(C)CC1` (stereo unspecified), the T/C was 105 % of control (endpoint: mean survival time, dose: 25.0 mg/kg/injection, schedule: Q01DX009 (ip), vehicle: saline with Tween-80); 96 % of control under setting [5]; 94 % of control and 95 % of control under setting [1]; 92 % of control under setting [6]; 91 % of control under setting [4]; 97 % of control under setting [7].
As to `O=CNNC=O`, the T/C reads like this: under setting [1], 94 % of control; under setting [6], 107 % of control; under setting [2], 92 % of control; under setting [4], 96 % of control; under setting [3], 97 % of control; under setting [7], 100 % of control.
For the compound `CCOC(=O)C1=C(C#N)C2(CCC(OCc3ccccc3)CC2)C(=O)O1` (stereo unspecified), the T/C (endpoint: mean survival time, dose: 12.5 mg/kg/injection, schedule: Q01DX009 (ip), vehicle: saline) is 95 % of control; the T/C (endpoint: mean survival time, dose: 12.5 mg/kg/injection, schedule: Q01DX009 (ip), vehicle: suspension in saline) was 106 % of control; the T/C (endpoint: mean survival time, dose: 25.0 mg/kg/injection, schedule: Q01DX009 (ip), vehicle: saline) is 100 % of control; the T/C (endpoint: mean survival time, dose: 25.0 mg/kg/injection, schedule: Q01DX009 (ip), vehicle: suspension in saline) was 106 % of control; the T/C (endpoint: mean survival time, dose: 50.0 mg/kg/injection, schedule: Q01DX009 (ip), vehicle: saline) was 107 % of control; the T/C (endpoint: mean survival time, dose: 50.0 mg/kg/injection, schedule: Q01DX009 (ip), vehicle: suspension in saline) was 108 % of control. Further, the T/C (endpoint: mean survival time, dose: 100.0 mg/kg/injection, schedule: Q01DX009 (ip), vehicle: saline) was 106 % of control; the T/C (endpoint: mean survival time, dose: 100.0 mg/kg/injection, schedule: Q01DX009 (ip), vehicle: suspension in saline) was 106 % of control; the T/C (endpoint: mean survival time, dose: 200.0 mg/kg/injection, schedule: Q01DX009 (ip), vehicle: saline) is 106 % of control; the T/C (endpoint: mean survival time, dose: 200.0 mg/kg/injection, schedule: Q01DX009 (ip), vehicle: suspension in saline) is 100 % of control; the T/C (endpoint: mean survival time, dose: 400.0 mg/kg/injection, schedule: Q01DX009 (ip), vehicle: suspension in saline) is 108 % of control.
As to `COC12C(COC(N)=O)C3=C(C(=O)C(C)=C(N4CCN(C)CC4)C3=O)N1CC1NC12` (stereo unspecified), the T/C was 155 % of control (endpoint: median survival time, dose: 1.5 mg/kg/injection, schedule: Q01DX001 (ip), vehicle: water); 124 % of control (endpoint: median survival time, dose: 3.0 mg/kg/injection, schedule: Q01DX001 (ip), vehicle: water); 87 % of control (endpoint: median survival time, dose: 6.0 mg/kg/injection, schedule: Q01DX001 (ip), vehicle: water); 102 % of control and 106 % of control (endpoint: median survival time, dose: 375.0 micrograms/kg/injection, schedule: Q01DX001 (ip), vehicle: water); 90 % of control and 102 % of control (endpoint: median survival time, dose: 750.0 micrograms/kg/injection, schedule: Q01DX001 (ip), vehicle: water); 101 % of control and 106 % of control (endpoint: median survival time, dose: 1500.0 micrograms/kg/injection, schedule: Q01DX001 (ip), vehicle: water). The T/C by setting is: (endpoint: median survival time, dose: 3000.0 micrograms/kg/injection, schedule: Q01DX001 (ip), vehicle: water) 94 % of control and 106 % of control; (endpoint: median survival time, dose: 6000.0 micrograms/kg/injection, schedule: Q01DX001 (ip), vehicle: water) 102 % of control and 105 % of control.
For `CC(=O)Nc1ccccc1OC(=O)c1ccccc1`, the T/C was 97 % of control under setting [5]; 97 % of control under setting [1]; 101 % of control under setting [6]; 97 % of control under setting [2]; 95 % of control under setting [4].
For `Cc1ccc(S(=O)(=O)N/N=C/c2ccncc2)cc1`, the T/C is, setting by setting: (endpoint: mean survival time, dose: 25.0 mg/kg/injection, schedule: Q01DX009 (ip), vehicle: Klucel (hydroxypropylcellulose) (HPC)) 104 % of control; (endpoint: mean survival time, dose: 50.0 mg/kg/injection, schedule: Q01DX009 (ip), vehicle: Klucel (hydroxypropylcellulose) (HPC)) 105 % of control; (endpoint: mean survival time, dose: 100.0 mg/kg/injection, schedule: Q01DX009 (ip), vehicle: Klucel (hydroxypropylcellulose) (HPC)) 98 % of control; (endpoint: mean survival time, dose: 200.0 mg/kg/injection, schedule: Q01DX009 (ip), vehicle: Klucel (hydroxypropylcellulose) (HPC)) 98 % of control.
